Molecular target: Lactoylglutathione lyase (Saccharomyces cerevisiae)
Test: Ability to inhibit yeast glyoxalase I enzyme in 0.05 M phosphate buffer, pH 6.6, 30 degree C

Ki: 15.5 µM
Compound: NC(CNC(=O)NC(CSCc1ccc(Br)cc1)C(=O)NCC(=O)O)C(=O)O (stereo unspecified) [2-Amino-3-{3-[2-(4-bromo-benzylsulfanyl)-1-(carboxymethyl-carbamoyl)-ethyl]-ureido}-propionic acid]

— BindingDB's records for doi:10.1016/s0960-894x(99)00097-9 (University of Minnesota, 1999)
